In US20120142705A1, “ISATIN AND OXINDOLE COMPOUNDS” (priority 2010, published 2012):

Molecular target: T1, Recombinant human liver GK1 (GST-GK) (Homo sapiens, UniProt P35557)
T1 construct: made in house; host or cells: E. coli
T1 sequence (P35557 1-466 isoform P35557-2): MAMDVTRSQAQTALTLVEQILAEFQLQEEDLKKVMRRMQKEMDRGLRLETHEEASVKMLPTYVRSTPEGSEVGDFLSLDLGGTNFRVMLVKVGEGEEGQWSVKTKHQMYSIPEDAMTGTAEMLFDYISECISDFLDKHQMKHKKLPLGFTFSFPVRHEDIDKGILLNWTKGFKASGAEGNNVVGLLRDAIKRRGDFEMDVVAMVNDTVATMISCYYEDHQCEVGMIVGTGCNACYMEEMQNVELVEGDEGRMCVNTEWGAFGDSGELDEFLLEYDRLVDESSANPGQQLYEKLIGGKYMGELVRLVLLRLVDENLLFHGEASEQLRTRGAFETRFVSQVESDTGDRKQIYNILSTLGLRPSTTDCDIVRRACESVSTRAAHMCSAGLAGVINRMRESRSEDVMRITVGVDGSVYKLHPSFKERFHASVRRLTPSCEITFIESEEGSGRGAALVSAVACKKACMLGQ
Assay: In vitro glucokinase activity, G6PDH-coupled spectrophotometric assay
Type: biochemical
Details: 5 mM D-glucose, 30° C.; for SC1.5 (concentration of activator that produced a 50% increase in the activity of GK): pH 7.1
Experimental: Glucokinase In Vitro Assay Protocol: Glucokinase (GK) was assayed by coupling the production of glucose-6-phosphate to the generation of NADH with glucose-6-phosphate dehydrogenase (G6PDH, 0.75-1 kunits/mg; Boehringer Mannheim, Indianapolis, Ind.) from Leuconostoc mesenteroides as the coupling enzyme (Scheme 2).
Recombinant human liver GK1 was expressed in E. coli as a glutathione S-transferase fusion protein (GST-GK) [Liang et al, 1995] and was purified by chromatography over a glutathione-Sepharose 4B affinity column using the procedure provided by the manufacturer (Amersham Pharmacia Biotech, Piscataway, N.J.).
The assay was conducted at 30° C. in a flat bottom 96-well tissue culture plate from Costar (Cambridge, Mass.) with a final incubation volume of 120 μL. The incubation reaction contained the following: 25 mM Hepes buffer (pH 7.1), 25 mM KCl, 5 mM D-glucose, 1 mM ATP, 1.8 mM NAD, 2 mM MgCl2, 1 μM sorbitol-6-phosphate, 1 mM dithiothreitol, test drug or 10% dimethylsulfoxide, ˜7 units/ml G6PDH, and GK (see below). All organic reagents were >98% pure and were from Boehringer Mannheim with the exceptions of D-glucose and Hepes which were from Sigma Chemical Co, St Louis, Mo. Test compounds were dissolved in dimethylsulfoxide and were added to the incubation reaction minus GST-GK in a volume of 12 μL to yield a final dimethylsulfoxide concentration of 10%. This mix was pre-incubated in the temperature controlled chamber of a SPECTRAmax 250 microplate spectrophotometer (Molecular Devices Corporation, Sunnyvale, Calif.) for 10 minutes to allow temperature equilibrium and then the reaction was started by the addition of 20 μL GST-GK.
After addition of enzyme, the increase in optical density (OD) at 340 nm was monitored spectrophotometrically to determine the rate of change (OD340 per min). The GK activity (OD340/min) in control wells (10% dimethylsulfoxide minus GK activators) was compared with the activity in wells containing test GK activators, and the concentration of activator that produced a 50% increase in the activity of GK, i.e., the SC1.5, was calculated.

Row | SC1.5 (concentration of activator that produced a 50% increase in the activity of GK) | fold induction at 30 µM | SMILES
1 | 22.75 µM | – | COc1ccc2c(c1)CC(=O)N2C(CC(C)C)C(=O)Nc1nccs1 (centres unmarked) [Example 56, 2-(5-Methoxy-2-oxo-2,3-dihydro-indol-1-yl)-4-methyl-pentanoic acid thiazol-2-ylamide]
2 | 13.89 µM | – | COc1ccc2c(c1)CC(=O)N2C(CC(C)C)C(=O)Nc1ccccn1 (centres unmarked) [Example 57, 2-(5-Methoxy-2-oxo-2,3-dihydro-indol-1-yl)-4-methyl-pentanoic acid pyridin-2-ylamide]
3 | – | 1.31 | COc1ccc2c(c1)CC(=O)N2C(CC(C)C)C(=O)Nc1cnccn1 (centres unmarked) [Example 58, 2-(5-Methoxy-2-oxo-2,3-dihydro-indol-1-yl)-4-methyl-pentanoic acid pyrazin-2-ylamide]
4 | 3.87 µM | – | CC(C)(O)Cn1ccc(NC(=O)C(CC2CCCC2)N2C(=O)Cc3ccccc32)n1 (centres unmarked) [Example 59, 3-Cyclopentyl-N-[1-(2-hydroxy-2-methyl-propyl)-1H-pyrazol-3-yl]-2-(2-oxo-2,3-dihydro-indol-1-yl)-propionamide]
5 | 5.48 µM | – | O=C1C(=O)N(C(CC2CCCC2)C(=O)Nc2cnccn2)c2ccc(Br)cc21 (centres unmarked) [Example 60, 2-(5-Bromo-2,3-dioxo-2,3-dihydro-indol-1-yl)-3-cyclopentyl-N-pyrazin-2-yl-propionamide]
6 | 0.95 µM | – | O=C1C(=O)N(C(CC2CCCC2)C(=O)Nc2ccccn2)c2ccc(Br)cc21 (centres unmarked) [Example 61, 2-(5-Bromo-2,3-dioxo-2,3-dihydro-indol-1-yl)-3-cyclopentyl-N-pyridin-2-yl-propionamide]
7 | 6.18 µM | – | Cn1ccc(NC(=O)C(CC2CCCC2)N2C(=O)C(=O)c3cc(Br)ccc32)n1 (centres unmarked) [Example 62, 2-(5-Bromo-2,3-dioxo-2,3-dihydro-indol-1-yl)-3-cyclopentyl-N-(1-methyl-1H-pyrazol-3-yl)-propionamide]
8 | 2.18 µM | – | O=C1C(=O)N(C(CC2CCCC2)C(=O)Nc2nccs2)c2ccc(Br)cc21 (centres unmarked) [Example 63, 2-(5-Bromo-2,3-dioxo-2,3-dihydro-indol-1-yl)-3-cyclopentyl-N-thiazol-2-yl-propionamide]
9 | 0.48 µM | – | O=C(Nc1ccccn1)C(CC1CCCC1)N1C(=O)Cc2cc(Br)ccc21 (centres unmarked) [Example 64, 2-(5-Bromo-2-oxo-2,3-dihydro-indol-1-yl)-3-cyclopentyl-N-pyridin-2-yl-propionamide]
10 | 2.71 µM | – | Cn1ccc(NC(=O)C(CC2CCCC2)N2C(=O)Cc3cc(Br)ccc32)n1 (centres unmarked) [Example 65, 2-(5-Bromo-2-oxo-2,3-dihydro-indol-1-yl)-3-cyclopentyl-N-(1-methyl-1H-pyrazol-3-yl)-propionamide]
11 | 1.69 µM | – | O=C(Nc1nccs1)C(CC1CCCC1)N1C(=O)Cc2cc(Br)ccc21 (centres unmarked) [Example 66, 2-(5-Bromo-2-oxo-2,3-dihydro-indol-1-yl)-3-cyclopentyl-N-thiazol-2-yl-propionamide]
12 | 1.28 µM | – | O=C(Nc1cnccn1)C(CC1CCCC1)N1C(=O)Cc2cc(Br)ccc21 (centres unmarked) [Example 67, 2-(5-Bromo-2-oxo-2,3-dihydro-indol-1-yl)-3-cyclopentyl-N-pyrazin-2-yl-propionamide]
13 | – | 1.32 | CC(C)CC(C(=O)Nc1cnccn1)N1C(=O)C(=O)c2cc(Br)ccc21 (centres unmarked) [Example 68, 2-(5-Bromo-2,3-dioxo-2,3-dihydro-indol-1-yl)-4-methyl-pentanoic acid pyrazin-2-ylamide]
14 | 7.43 µM | – | CC(C)CC(C(=O)Nc1ccccn1)N1C(=O)C(=O)c2cc(Br)ccc21 (centres unmarked) [Example 69, 2-(5-Bromo-2,3-dioxo-2,3-dihydro-indol-1-yl)-4-methyl-pentanoic acid pyridin-2-ylamide]
